System: Endogenous Huntingtin Protein (capture with MW1 (expanded polyglutamine) or MAB2166 antibody)
Experiment: Endogenous Huntingtin Protein Assay (ELISA-based Meso Scale Discovery electrochemiluminescence assay)
Type: cell-based
Conditions: MSD electrochemiluminescence platform
Procedure, shortened: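 MSD electrochemiluminescence sandwich immunoassay: plates coated with 1 μg/mL MW1 or MAB2166 capture antibody, samples incubated overnight at 4 °C. Detection with rabbit monoclonal #5656S then SULFO-TAG anti-rabbit (each 0.25 μg/mL, 1 h RT).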

Row | Molecule | IC50
1 | C[C@]12CC[C@](C)(C[C@@H](Oc3ccc(-c4ncc(-c5cncnc5)cc4O)nn3)C1)N2 [Compound 36, 2-(6-{[(1R,3s,5S)-1,5-dimethyl-8-azabicyclo[3.2.1]octan-3-yl]oxy}pyridazin-3-yl)-5-(pyrimidin-5-yl)pyridin-3-ol and 2-(6-{[(1S,3r,5R)-1,5-dimethyl-8-azabicyclo[3.2.1]octan-3-yl]oxy}pyridazin-3-yl)-5-(pyrimidin-5-yl)pyridin-3-ol] | 500 to 1000 nM
2 | C[C@@H]1CN(c2ccc(-c3ncc(-c4cc(F)c5nn(C)cc5c4)cc3O)nn2)C[C@H](C)N1 [Compound 69, 2-{6-[(3R,5S)-3,5-dimethylpiperazin-1-yl]pyridazin-3-yl}-5-(7-fluoro-2-methyl-2H-indazol-5-yl)pyridin-3-ol and 2-{6-[(3S,5R)-3,5-dimethylpiperazin-1-yl]pyridazin-3-yl}-5-(7-fluoro-2-methyl-2H-indazol-5-yl)pyridin-3-ol] | ≤ 100 nM
3 | CC1(C)C[C@H](Oc2ccc(-c3ncc(-c4cn[nH]c4F)cc3O)nn2)[C@H](F)C(C)(C)N1 (single isomer, unassigned) [Compound 22, 5-(5-fluoro-1H-pyrazol-4-yl)-2-(6-{[(3R,4S)-3-fluoro-2,2,6,6-tetramethylpiperidin-4-yl]oxy}pyridazin-3-yl)pyridin-3-ol or 5-(5-fluoro-1H-pyrazol-4-yl)-2-(6-{[(3S,4R)-3-fluoro-2,2,6,6-tetramethylpiperidin-4-yl]oxy}pyridazin-3-yl)pyridin-3-ol] | 100 to 500 nM
4 | [2H]C([2H])([2H])n1cc(-c2cnc(-c3ccc(N4CCN[C@@H](C5CC5)C4)nn3)c(O)c2)cn1 [Compound 129, 2-{6-[(3S)-3-cyclopropylpiperazin-1-yl]pyridazin-3-yl}-5-[1-(^2H3)methyl-1H-pyrazol-4-yl]pyridin-3-ol] | ≤ 100 nM
5 | C[C@@H]1CN(c2cnc(-c3ncc(-c4cc(F)c5nn(C)cc5c4)cc3O)nn2)C[C@H](C)N1 [Compound 164, 2-{6-[(3R,5S)-3,5-dimethylpiperazin-1-yl]-1,2,4-triazin-3-yl}-5-(7-fluoro-2-methyl-2H-indazol-5-yl)pyridin-3-ol and 2-{6-[(3S,5R)-3,5-dimethylpiperazin-1-yl]-1,2,4-triazin-3-yl}-5-(7-fluoro-2-methyl-2H-indazol-5-yl)pyridin-3-ol] | 100 to 500 nM
6 | Cc1n[nH]cc1CNc1cnc(-c2ccc(N3CCNC(C)C3)nn2)c(O)c1 (stereo not shown) [Compound 108, 2-[6-(3-methylpiperazin-1-yl)pyridazin-3-yl]-5-{[(3-methyl-1H-pyrazol-4-yl)methyl]amino}pyridin-3-ol] | 500 to 1000 nM
7 | CC(C)(C)NC1CCN(c2ncc(-c3ncc(-n4nccn4)cc3O)nn2)C1 (stereo not shown) [Compound 138, 2-{3-[3-(tert-butylamino)pyrrolidin-1-yl]-1,2,4-triazin-6-yl}-5-(2H-1,2,3-triazol-2-yl)pyridin-3-ol] | ≤ 100 nM
8 | [2H]C([2H])([2H])n1cc(-c2cnc(-c3cnc(N4CCC(NC(C)(C)C)C4)nn3)c(O)c2)cn1 (stereo not shown) [Compound 137, 2-{3-[3-(tert-butylamino)pyrrolidin-1-yl]-1,2,4-triazin-6-yl}-5-[1-(^2H3)methyl-1H-pyrazol-4-yl]pyridin-3-ol] | ≤ 100 nM
9 | Cc1cnc(Nc2cnc(-c3cnc(N4CCN[C@@H](C5CC5)C4)nn3)c(O)c2)cn1 [Compound 160, 2-{3-[(3S)-3-cyclopropylpiperazin-1-yl]-1,2,4-triazin-6-yl}-5-[(5-methylpyrazin-2-yl)amino]pyridin-3-ol] | ≤ 100 nM
10 | CC1(C)CC(Oc2ccc(-c3ncc(-n4ccnc4)cc3O)nn2)CC(C)(C)N1 [Compound 5, 5-(1H-imidazol-1-yl)-2-{6-[(2,2,6,6-tetramethylpiperidin-4-yl)oxy]pyridazin-3-yl}pyridin-3-ol] | ≤ 100 nM
11 | Cn1cc2cc(-c3cnc(-c4ccc(N5CCNCC5)nn4)c(O)c3)cc(F)c2n1 [Compound 93, 5-(7-fluoro-2-methyl-2H-indazol-5-yl)-2-[6-(piperazin-1-yl)pyridazin-3-yl]pyridin-3-ol] | ≤ 100 nM
12 | [2H]C([2H])([2H])n1cc(-c2cnc(-c3ccc(N4CC[C@@H](NC(C)(C)C)C4)nn3)c(O)c2)cn1 [Compound 23, 2-{6-[(3R)-3-(tert-butylamino)pyrrolidin-1-yl]pyridazin-3-yl}-5-[1-(^2H3)methyl-1H-pyrazol-4-yl]pyridin-3-ol] | ≤ 100 nM
13 | [2H]C([2H])([2H])n1cc(-c2cnc(-c3ccc(N4CCC(NC(C)(C)C)C4)nn3)c(O)c2)cn1 (stereo not shown) [Compound 29, 2-{6-[3-(tert-butylamino)pyrrolidin-1-yl]pyridazin-3-yl}-5-[1-(^2H3)methyl-1H-pyrazol-4-yl]pyridin-3-ol] | ≤ 100 nM
14 | Oc1cc(-c2cn[nH]c2)cnc1-c1ccc(N2CCNC(C3CC3)C2)nn1 (stereo not shown) [Compound 123, 2-[6-(3-cyclopropylpiperazin-1-yl)pyridazin-3-yl]-5-(1H-pyrazol-4-yl)pyridin-3-ol] | ≤ 100 nM
15 | CC1(C)CC(Oc2ccc(-c3ncc(-c4cn[nH]c4F)cc3O)nn2)CC2(CC2)N1 (stereo not shown) [Compound 26, 2-{6-[(5,5-dimethyl-4-azaspiro[2.5]octan-7-yl)oxy]pyridazin-3-yl}-5-(5-fluoro-1H-pyrazol-4-yl)pyridin-3-ol] | ≤ 100 nM
16 | CN(c1cnc(-c2ncc(-n3nccn3)cc2O)nn1)C1CC(C)(C)NC(C)(C)C1 [Compound 161, 2-{6-[methyl(2,2,6,6-tetramethylpiperidin-4-yl)amino]-1,2,4-triazin-3-yl}-5-(2H-1,2,3-triazol-2-yl)pyridin-3-ol] | ≤ 100 nM
17 | CC1(C)CC(Oc2ccc(-c3ncc(-c4cn[nH]c4)cc3O)nn2)CC2(CC2)N1 (stereo not shown) [Compound 27, 2-{6-[(5,5-dimethyl-4-azaspiro[2.5]octan-7-yl)oxy]pyridazin-3-yl}-5-(1H-pyrazol-4-yl)pyridin-3-ol] | ≤ 100 nM
18 | 2-(6-{[(3R,4S)-3-fluoro-2,2,6,6-tetramethylpiperidin-4-yl]oxy}pyridazin-3-yl)-5-(2-methylimidazo[1,2-a]pyridin-6-yl)pyridin-3-ol and 2-(6-{[(3S,4R)-3-fluoro-2,2,6,6-tetramethylpiperidin-4-yl]oxy}pyridazin-3-yl)-5-(2-methylimidazo[1,2-a]pyridin-6-yl)pyridin-3-ol [Compound 43] | ≤ 100 nM
19 | CC[C@H]1CN(c2ccc(-c3ncc(-c4cn[nH]c4)cc3O)nn2)CCN1 [Compound 132, 2-{6-[(3S)-3-ethylpiperazin-1-yl]pyridazin-3-yl}-5-(1H-pyrazol-4-yl)pyridin-3-ol] | ≤ 100 nM
20 | CN(c1ccc(-c2ncc(-n3ccnc3)cc2O)nn1)C1CC(C)(C)NC(C)(C)C1 [Compound 15, 5-(1H-imidazol-1-yl)-2-{6-[methyl(2,2,6,6-tetramethylpiperidin-4-yl)amino]pyridazin-3-yl}pyridin-3-ol] | ≤ 100 nM
21 | CC(C)(C)N[C@H]1CCN(c2ncc(-c3ncc(-c4c[nH]nc4F)cc3O)nn2)C1 [Compound 145, 2-{3-[(3S)-3-(tert-butylamino)pyrrolidin-1-yl]-1,2,4-triazin-6-yl}-5-(3-fluoro-1H-pyrazol-4-yl)pyridin-3-ol] | ≤ 100 nM
22 | 5-(2,8-dimethylimidazo[1,2-b]pyridazin-6-yl)-2-(6-{[(3R,4S)-3-fluoro-2,2,6,6-tetramethylpiperidin-4-yl]oxy}pyridazin-3-yl)pyridin-3-ol and 5-(2,8-dimethylimidazo[1,2-b]pyridazin-6-yl)-2-(6-{[(3S,4R)-3-fluoro-2,2,6,6-tetramethylpiperidin-4-yl]oxy}pyridazin-3-yl)pyridin-3-ol [Compound 47] | ≤ 100 nM
23 | 2-(6-{[(3S,4S)-3-fluoro-2,2,6,6-tetramethylpiperidin-4-yl]amino}pyridazin-3-yl)-5-(1H-pyrazol-3-yl)pyridin-3-ol and 2-(6-{[(3R,4R)-3-fluoro-2,2,6,6-tetramethylpiperidin-4-yl]amino}pyridazin-3-yl)-5-(1H-pyrazol-3-yl)pyridin-3-ol [Compound 16] | ≤ 100 nM
24 | Cc1cn2cc(-c3cnc(-c4ccc(N5CCC6(CCN6)C5)nn4)c(O)c3)ccc2n1 (stereo not shown) [Compound 107, 2-[6-(1,6-diazaspiro[3.4]octan-6-yl)pyridazin-3-yl]-5-(2-methylimidazo[1,2-a]pyridin-6-yl)pyridin-3-ol] | ≤ 100 nM
25 | CC1(C)C[C@H](Oc2ccc(-c3ncc(-n4nccn4)cc3O)nn2)[C@H](F)C(C)(C)N1 (single isomer, unassigned) [Compound 11, 2-(6-{[(3R,4S)-3-fluoro-2,2,6,6-tetramethylpiperidin-4-yl]oxy}pyridazin-3-yl)-5-(2H-1,2,3-triazol-2-yl)pyridin-3-ol or 2-(6-{[(3S,4R)-3-fluoro-2,2,6,6-tetramethylpiperidin-4-yl]oxy}pyridazin-3-yl)-5-(2H-1,2,3-triazol-2-yl)pyridin-3-ol] | ≤ 100 nM
26 | Cn1cnc(-c2cnc(-c3ccc(O[C@@H]4CC(C)(C)NC(C)(C)[C@@H]4F)nn3)c(O)c2)cc1=O.Cn1cnc(-c2cnc(-c3ccc(O[C@H]4CC(C)(C)NC(C)(C)[C@H]4F)nn3)c(O)c2)cc1=O (mixture of isomers) [Compound 42, 6-[6-(6-{[(3R,4S)-3-fluoro-2,2,6,6-tetramethylpiperidin-4-yl]oxy}pyridazin-3-yl)-5-hydroxypyridin-3-yl]-3-methylpyrimidin-4(3H)-one and 6-[6-(6-{[(3S,4R)-3-fluoro-2,2,6,6-tetramethylpiperidin-4-yl]oxy}pyridazin-3-yl)-5-hydroxypyridin-3-yl]-3-methylpyrimidin-4(3H)-one] | 500 to 1000 nM
27 | [2H]C([2H])([2H])n1cc(-c2cnc(-c3ccc(O[C@@H]4C[C@@H](C)NC5(CC5)C4)nn3)c(O)c2)cn1 [Compound 85, 2-(6-{[(5R,7R)-5-methyl-4-azaspiro[2.5]octan-7-yl]oxy}pyridazin-3-yl)-5-[1-(^2H3)methyl-1H-pyrazol-4-yl]pyridin-3-ol] | 500 to 1000 nM
28 | CC(C)(C)N[C@@H]1CCN(c2ccc(-c3ncc(-n4nccn4)cc3O)nn2)C1 [Compound 24, 2-{6-[(3R)-3-(tert-butylamino)pyrrolidin-1-yl]pyridazin-3-yl}-5-(2H-1,2,3-triazol-2-yl)pyridin-3-ol] | ≤ 100 nM

From US12577226B2, “Compounds for treating Huntington's disease” (PTC THERAPEUTICS, INC., priority 2019, dated 2026)
